Test results from ChEMBL document CHEMBL4837187, “Antimicrobial Benzyltetrahydroisoquinoline-Derived Alkaloids from the Leaves of Doryphora aromatica” (2021).

Legend:
Assay type in all cases: functional
Escherichia coli = assay: Antimicrobial activity against Escherichia coli assessed as microbial growth inhibition incubated for 16 hrs under aerobic condition by microplate reader assay
Staphylococcus aureus [1] = assay: Antimicrobial activity against methicillin-resistant Staphylococcus aureus clinical isolate 1 assessed as microbial growth inhibition incubated for 16 hrs under aerobic condition by microplate reader assay
Staphylococcus aureus [2] = assay: Antimicrobial activity against Staphylococcus aureus assessed as microbial growth inhibition incubated for 16 hrs under aerobic condition by microplate reader assay
Staphylococcus aureus [3] = assay: Antimicrobial activity against methicillin-resistant Staphylococcus aureus clinical isolate 5 assessed as microbial growth inhibition incubated for 16 hrs under aerobic condition by microplate reader assay
Staphylococcus aureus [4] = assay: Antimicrobial activity against methicillin-resistant Staphylococcus aureus clinical isolate 4 assessed as microbial growth inhibition incubated for 16 hrs under aerobic condition by microplate reader assay
[5] = test system: Mycobacterium tuberculosis; assay: Antimicrobial activity against Mycobacterium tuberculosis H37Rv assessed as microbial growth inhibition incubated for 16 hrs under aerobic condition by microplate reader assay
[6] = test system: Mycolicibacterium smegmatis; assay: Antimicrobial activity against Mycobacterium smegmatis MC2 155 ATCC […] assessed as microbial growth inhibition incubated for 16 hrs under aerobic condition by microplate reader assay
Staphylococcus aureus [7] = assay: Antimicrobial activity against methicillin-resistant Staphylococcus aureus clinical isolate 3 assessed as microbial growth inhibition incubated for 16 hrs under aerobic condition by microplate reader assay
[8] = test system: Mycobacterium tuberculosis; assay: Antimicrobial activity against Mycobacterium tuberculosis MC2 6220 BSL2 assessed as microbial growth inhibition at 6.25 uM incubated for 16 hrs under aerobic condition by microplate reader assay relative to control; settings: read-out: GI
Staphylococcus aureus [9] = assay: Antimicrobial activity against methicillin-resistant Staphylococcus aureus clinical isolate 2 assessed as microbial growth inhibition incubated for 16 hrs under aerobic condition by microplate reader assay
[10] = test system: Mycobacterium tuberculosis; assay: Antimicrobial activity against Mycobacterium tuberculosis MC2 6220 BSL2MIC assessed as microbial growth inhibition incubated for 16 hrs under aerobic condition by microplate reader assay

Structure (SMILES) | MIC (Escherichia coli) [µM] | MIC (Staphylococcus aureus [1]) [µM] | MIC (Staphylococcus aureus [2]) [µM] | MIC (Staphylococcus aureus [3]) [µM] | MIC (Staphylococcus aureus [4]) [µM] | MIC [5] [µM] | MIC [6] [µM] | MIC (Staphylococcus aureus [7]) [µM] | inhibition of growth at 6.25 µM [8] [%] | MIC (Staphylococcus aureus [9]) [µM] | MIC [10] [µM]
COc1cc2c(cc1OC)[C@@H](Cc1ccc(Oc3cc(Cc4c5cc(OC)c(OC)cc5cc[n+]4C)ccc3OC)cc1)N(C)CC2 | 158 | 39.4 | 39.4 | 19.7 | 39.4 | > 100 | 39.4 | 19.7 | 70 | 39.4 | 12.5
COc1cc2cc[n+](C)c(O)c2cc1OC | > 100 | – | > 100 | – | – | – | > 100 | – | – | – | –
COc1cc2cc[n+](C)c(Cc3ccc(Oc4cc(Cc5c6cc(OC)c(OC)cc6cc[n+]5C)ccc4OC)cc3)c2cc1OC | 39.6 | 9.9 | 9.9 | 9.9 | 9.9 | – | 158 | 39.6 | – | 39.6 | –
COc1cc2cc[n+](C)c(Cc3ccc(OC)c(Oc4ccc(C=O)cc4)c3)c2cc1OC | > 100 | – | > 100 | – | – | – | > 100 | – | – | – | –
COc1cc2cc[n+](C)c(Cc3ccc(Oc4cc(Cc5c6cc(OC)c(OC)cc6cc[n+]5C)ccc4O)cc3)c2cc1OC | > 100 | – | > 100 | – | – | – | > 100 | – | – | – | –
